30 compounds from patent US9421209B2, “Kinase modulators” (Rhizen Pharmaceuticals SA, priority 2009, dated 2016) can be followed below.

SMILES strings stand for the structures.

As usually defined, the melting point is the temperature, or range, at which the solid turns liquid. One may read the inhibition as the share of the control response that was lost under treatment. A higher inhibition goes with a strong effect.

In one data set the target is P110 δ/Pi3K δ (Homo sapiens, UniProt O00329). The experiment in a line: Fluorescent (HTRF) determination of PI3K enzyme activity, δ isoform. The data set is classed as biochemical. The following applies: for IC50: read-out: P110 δ/Pi3K δ IC 50 nM. The source says: Assay 1: Fluorescent determination of PI3Kinase Kinase enzyme activity
P110 δ/Pi3K δ, sequence (O00329 whole entry, canonical isoform): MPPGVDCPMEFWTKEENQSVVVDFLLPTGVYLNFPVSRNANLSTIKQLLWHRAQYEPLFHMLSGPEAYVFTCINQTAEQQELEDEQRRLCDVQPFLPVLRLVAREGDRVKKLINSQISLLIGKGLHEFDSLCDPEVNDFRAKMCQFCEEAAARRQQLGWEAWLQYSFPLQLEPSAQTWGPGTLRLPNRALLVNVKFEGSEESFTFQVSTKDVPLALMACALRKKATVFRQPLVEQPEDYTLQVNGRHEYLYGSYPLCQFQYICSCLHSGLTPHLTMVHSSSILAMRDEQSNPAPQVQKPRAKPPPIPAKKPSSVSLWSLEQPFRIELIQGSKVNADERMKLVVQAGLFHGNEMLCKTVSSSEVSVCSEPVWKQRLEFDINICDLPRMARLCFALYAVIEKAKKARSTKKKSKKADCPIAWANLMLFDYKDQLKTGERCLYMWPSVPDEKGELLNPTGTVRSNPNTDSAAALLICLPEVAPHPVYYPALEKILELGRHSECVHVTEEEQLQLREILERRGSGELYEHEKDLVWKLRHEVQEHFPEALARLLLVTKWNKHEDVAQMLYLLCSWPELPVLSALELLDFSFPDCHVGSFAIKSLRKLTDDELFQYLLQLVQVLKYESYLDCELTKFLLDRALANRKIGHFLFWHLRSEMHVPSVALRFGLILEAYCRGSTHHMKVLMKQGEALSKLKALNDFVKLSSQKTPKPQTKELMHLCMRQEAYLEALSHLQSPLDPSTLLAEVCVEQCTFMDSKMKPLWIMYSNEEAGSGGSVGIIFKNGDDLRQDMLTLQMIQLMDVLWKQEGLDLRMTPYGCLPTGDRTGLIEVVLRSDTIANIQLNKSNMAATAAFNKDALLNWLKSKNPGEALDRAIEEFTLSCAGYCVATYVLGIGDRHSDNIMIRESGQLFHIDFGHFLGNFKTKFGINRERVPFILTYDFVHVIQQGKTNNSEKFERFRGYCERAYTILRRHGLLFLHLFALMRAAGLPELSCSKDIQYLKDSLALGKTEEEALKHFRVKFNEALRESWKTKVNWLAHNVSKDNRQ
P110 δ/Pi3K δ, sequence (P27986 whole entry partner, canonical isoform): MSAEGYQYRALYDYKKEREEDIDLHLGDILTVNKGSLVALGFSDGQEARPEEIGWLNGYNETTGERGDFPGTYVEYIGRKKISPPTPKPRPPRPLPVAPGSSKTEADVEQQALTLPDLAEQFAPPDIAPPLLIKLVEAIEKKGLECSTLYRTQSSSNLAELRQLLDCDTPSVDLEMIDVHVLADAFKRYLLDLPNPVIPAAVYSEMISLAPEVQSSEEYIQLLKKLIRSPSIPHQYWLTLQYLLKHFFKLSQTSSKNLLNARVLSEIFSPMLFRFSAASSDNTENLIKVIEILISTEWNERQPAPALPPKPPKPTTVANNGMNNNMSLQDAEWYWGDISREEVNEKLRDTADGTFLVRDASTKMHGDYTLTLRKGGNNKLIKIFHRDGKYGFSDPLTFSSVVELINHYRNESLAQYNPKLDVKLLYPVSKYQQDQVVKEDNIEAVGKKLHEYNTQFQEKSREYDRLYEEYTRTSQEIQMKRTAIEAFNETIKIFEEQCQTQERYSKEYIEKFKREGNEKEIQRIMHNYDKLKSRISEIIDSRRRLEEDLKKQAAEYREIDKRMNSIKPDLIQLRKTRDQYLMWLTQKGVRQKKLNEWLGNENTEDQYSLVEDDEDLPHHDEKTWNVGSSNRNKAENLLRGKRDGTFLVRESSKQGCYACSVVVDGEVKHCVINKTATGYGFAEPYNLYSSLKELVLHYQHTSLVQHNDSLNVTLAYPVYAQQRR
Phosphoinositide 3 kinases (PI3K) belong to a class of lipid kinases that play a critical role in the regulation of several key cellular processes. The PI3K are capable of phosphorylating the 3-hydroxy position of phosphoinositols thereby generating second messengers involved in downstream signalling events. The homogenous time resolved fluorescence (HTRF) assay allows detection of 3,4,5-triphosphate (PIP3) formed as a result of phosphorylation of phosphotidylinositol 4,5-biphosphate (PIP2) by PI3K isoforms such as α, β, γ or δ.
PI3K isoform activity for α, β, γ or δ was determined using a PI3K human HTRF™ Assay Kit (Millipore, Billerica, Mass.) with modifications. All incubations were carried out at room temperature. […] After the initial incubation, 5 μl/well of 400 μM ATP was added and incubated for an additional 30 minutes. Reaction was terminated by adding 5 μl/well stop solution (Millipore, Billerica, Mass.). Five microliters of detection mix (Millipore, Billerica, Mass.) were then added to each well and was incubated for 6-18 h in the dark. […] Data were analyzed using Graphpad Prism (Graphpad software; San Diego Calif.) for IC50 determination. Percent inhibition was calculated based on the values for the blank and enzyme controls.
On the technique in general: Time-resolved FRET reads energy transfer from a long-lived donor to a nearby acceptor.

Compound `Nc1ncnc2c1ncn2Cc1oc2ccccc2c(=O)c1-c1ccc(F)cc1` [Example 16, 2-[(6-Amino-9H-purin-9-yl)methyl]-3-(4-fluorophenyl)-4H-chromen-4-one] returned a melting point of 212 to 216 °C. The same compound gave an inhibition at 1 µM against P110 δ/Pi3K δ of less than 50%.

In turn, `Cl.O=c1c(-c2ccc(F)cc2)c(CN2CCOCC2)oc2ccccc12` [Example 18a, 3-(4-fluorophenyl)-2-(morpholinomethyl)-4H-chromen-4-one hydrochloride] registered a melting point of 225 to 229 °C. For the same compound, the inhibition at 1 µM against P110 δ/Pi3K δ was less than 50%.

As to `Cn1c(=O)c2c(ncn2Cc2oc3ccc(Br)cc3c(=O)c2-c2ccccc2)n(C)c1=O` [Example 20, 7-[(6-Bromo-4-oxo-3-phenyl-4H-chromen-2-yl)methyl]-1,3-dimethyl-1H-purine-2,6(3H,7H)-dione], the melting point was 253 to 255 °C. In addition, the inhibition at 1 µM at P110 δ/Pi3K δ is less than 50%.

On to `CC(c1oc2ccc(Br)cc2c(=O)c1-c1ccccc1)n1cnc2c(N)ncnc21` (centres unmarked) [Example 21, 2-(1-(6-Amino-9H-purin-9-yl)ethyl)-6-bromo-3-phenyl-4H-chromen-4-one], for which the melting point fell in the range of 230 to 231 °C. The same compound had an inhibition at 1 µM at P110 δ/Pi3K δ of less than 50%.

With `CC(Sc1ncnc2[nH]cnc12)c1oc2ccc(Br)cc2c(=O)c1-c1ccccc1` (centres unmarked) [Example 22, 2-(1-(9H-Purin-6-ylthio)ethyl)-6-bromo-3-phenyl-4H-chromen-4-one], the melting point was in the range of 234 to 237 °C. This compound had an inhibition at 1 µM at P110 δ/Pi3K δ of less than 50%.

For `C[C@H](Nc1ncnc2[nH]cnc12)c1oc2ccc(Br)cc2c(=O)c1-c1ccccc1` [Example 24, (S)-2-(1-(9H-purin-6-ylamino)ethyl)-6-bromo-3-phenyl-4H-chromen-4-one], the melting point was in the range of 151 to 154 °C. The compound further gave an inhibition at 1 µM against P110 δ/Pi3K δ of less than 50%.

The compound `O=c1c(-c2ccccc2)c(CNc2ncnc3[nH]cnc23)oc2ccc(Br)cc12` [Example 25, 2-((9H-purin-6-ylamino)methyl)-6-bromo-3-phenyl-4H-chromen-4-one] had a melting point of 151 to 154 °C. The compound also registered an inhibition at 1 µM at P110 δ/Pi3K δ of less than 50%.

`CC(c1oc2ccc(Br)cc2c(=O)c1-c1ccccc1)n1ncc2c(N)ncnc21` (centres unmarked) [Example 26, 2-(1-(4-amino-1H-pyrazolo[3,4-d]pyrimidin-1-yl)ethyl)-6-bromo-3-phenyl-4H-chromen-4-one] came in with a melting point of 239 to 240 °C. Moreover, on P110 δ/Pi3K δ, the inhibition at 1 µM was less than 50%.

`COc1ccc2oc(Cn3cnc4c(N)ncnc43)c(-c3ccccc3)c(=O)c2c1` [Example 27, 2-((6-Amino-9H-purin-9-yl)methyl)-6-methoxy-3-phenyl-4H-chromen-4-one] came in with a melting point of 197 to 198 °C. Besides, the inhibition at 1 µM against P110 δ/Pi3K δ was less than 50%.

On to `CC(c1oc2ccc(Br)cc2c(=O)c1-c1ccccc1F)n1cnc2c(N)ncnc21` (centres unmarked) [Example 28, 2-(1-(6-Amino-9H-purin-9-yl)ethyl)-6-bromo-3-(2-fluorophenyl)-4H-chromen-4-one], for which the melting point lay in the range of 256 to 258 °C. Also, the inhibition at 1 µM against P110 δ/Pi3K δ is less than 50%.

As for `Nc1ncnc2c1ncn2Cc1oc2ccc(Br)cc2c(=O)c1-c1ccccc1F` [Example 29, 2-((6-Amino-9H-purin-9-yl)methyl)-6-bromo-3-(2-fluorophenyl)-4H-chromen-4-one], the melting point lay in the range of 231 to 233 °C. Besides, the inhibition at 1 µM against P110 δ/Pi3K δ is less than 50%.

`CC(c1oc2ccccc2c(=O)c1-c1ccccc1)n1ncc2c(N)ncnc21` (centres unmarked) [Example 30, 2-(1-(4-Amino-1H-pyrazolo[3,4-d]pyrimidin-1-yl)ethyl)-3-phenyl-4H-chromen-4-one]: the melting point fell in the range of 226 to 227 °C. Besides, the inhibition at 1 µM against P110 δ/Pi3K δ was less than 50%.

Regarding `CCC(c1oc2ccccc2c(=O)c1-c1ccccc1)n1cnc2c(N)ncnc21` (centres unmarked) [Example 31, 2-(1-(6-Amino-9H-purin-9-yl)propyl)-3-phenyl-4H-chromen-4-one], the melting point lay in the range of 223 to 225 °C. Further, at P110 δ/Pi3K δ, the inhibition at 1 µM fell in the range of 50 to 100% and the IC50 is 250 to 500 nM.

With `Nc1ncnc2c1ncn2Cc1oc2ccccc2c(=O)c1-c1ccccc1F` [Example 33, 2-((6-Amino-9H-purin-9-yl)methyl)-3-(2-fluorophenyl)-4H-chromen-4-one], the melting point lay within 202 to 205 °C. Also, the inhibition at 1 µM on P110 δ/Pi3K δ was less than 50%.

For `CC(c1oc2ccccc2c(=O)c1-c1ccccc1F)n1cnc2c(N)ncnc21` (centres unmarked) [Example 34, 2-(1-(6-Amino-9H-purin-9-yl)ethyl)-3-(2-fluorophenyl)-4H-chromen-4-one], the melting point was 247 to 250 °C. The compound further yielded an inhibition at 1 µM on P110 δ/Pi3K δ of 50 to 100%.

For `CCC(c1oc2ccccc2c(=O)c1-c1ccccc1F)n1cnc2c(N)ncnc21` (centres unmarked) [Example 35, 2-(1-(6-Amino-9H-purin-9-yl)propyl)-3-(2-fluorophenyl)-4H-chromen-4-one], the melting point lay in the range of 160 to 163 °C. Moreover, the inhibition at 1 µM against P110 δ/Pi3K δ is less than 50%.

`CCC(c1oc2ccccc2c(=O)c1-c1cccc(F)c1)n1cnc2c(N)ncnc21` (centres unmarked) [Example 36, 2-(1-(6-amino-9H-purin-9-yl)propyl)-3-(3-fluorophenyl)-4H-chromen-4-one] showed a melting point of 102 to 107 °C. This compound returned an inhibition at 1 µM against P110 δ/Pi3K δ of less than 50%.

As for `CCC(c1oc2ccccc2c(=O)c1-c1ccc(F)cc1)n1cnc2c(N)ncnc21` (centres unmarked) [Example 37, 2-(1-(6-Amino-9H-purin-9-yl)propyl)-3-(4-fluorophenyl)-4H-chromen-4-one], the melting point fell in the range of 223 to 227 °C. For the same compound, the inhibition at 1 µM at P110 δ/Pi3K δ is less than 50%.

As to `CCC(c1oc2ccc(F)cc2c(=O)c1-c1ccccc1)n1cnc2c(N)ncnc21` (centres unmarked) [Example 38, 2-(1-(6-amino-9H-purin-9-yl)propyl)-6-fluoro-3-phenyl-4H-chromen-4-one], the melting point was 266 to 272 °C. At P110 δ/Pi3K δ, this compound showed an inhibition at 1 µM of less than 50%.

`CC(c1oc2ccccc2c(=O)c1-c1ccc(F)cc1)n1cnc2c(N)ncnc21` (centres unmarked) [Example 39, 2-(1-(6-Amino-9H-purin-9-yl)ethyl)-3-(4-fluorophenyl)-4H-chromen-4-one] gave a melting point of 210 to 212 °C. This compound showed an inhibition at 1 µM at P110 δ/Pi3K δ of less than 50%.

`CC(c1oc2ccc(F)cc2c(=O)c1-c1ccccc1)n1cnc2c(N)ncnc21` (centres unmarked) [Example 40, 2-(1-(6-Amino-9H-purin-9-yl)ethyl)-6-fluoro-3-phenyl-4H-chromen-4-one] registered a melting point of 264 to 269 °C. For the same compound, the inhibition at 1 µM against P110 δ/Pi3K δ is 50 to 100%.

In turn, `COc1cccc(-c2nn(C(C)c3oc4ccccc4c(=O)c3-c3ccccc3)c3ncnc(N)c23)c1` (centres unmarked) [Example 41, 2-(1-(4-Amino-3-(3-methoxyphenyl)-1H-pyrazolo[3,4-d]pyrimidin-1-yl)ethyl)-3-phenyl-4H-chromen-4-one] came in with a melting point of 176 to 178 °C. In addition, at P110 δ/Pi3K δ, the inhibition at 1 µM is 50 to 100%.

In the case of `O=c1c(-c2ccccc2)c(CNc2ncnc3[nH]cnc23)oc2ccccc12` [Example 43, 2-((9H-purin-6-ylamino)methyl)-3-phenyl-4H-chromen-4-one], the melting point is 155 to 158 °C. The same compound returned an inhibition at 1 µM on P110 δ/Pi3K δ of less than 50%.

`Cc1ccccc1-c1c(C(C)n2cnc3c(N)ncnc32)oc2ccccc2c1=O` (centres unmarked) [Example 44, 2-(1-(6-Amino-9H-purin-9-yl)ethyl)-3-o-tolyl-4H-chromen-4-one] gave a melting point of 202 to 205 °C. This compound came in with an inhibition at 1 µM against P110 δ/Pi3K δ of 50 to 100%.

Compound `O=c1c(-c2ccccc2F)c(CNc2ncnc3[nH]cnc23)oc2ccccc12` [Example 45, 2-((9H-purin-6-ylamino)methyl)-3-(2-fluorophenyl)-4H-chromen-4-one] returned a melting point of 143 to 147 °C. The inhibition at 1 µM against P110 δ/Pi3K δ is less than 50%.

`O=c1c(-c2cccc(F)c2)c(CNc2ncnc3[nH]cnc23)oc2ccccc12` [Example 46, 2-((9H-purin-6-ylamino)methyl)-3-(3-fluorophenyl)-4H-chromen-4-one] displayed a melting point of 211 to 214 °C. Also, at P110 δ/Pi3K δ, the inhibition at 1 µM is less than 50%.

Consider `CC(c1oc2ccc(F)cc2c(=O)c1-c1ccccc1F)n1cnc2c(N)ncnc21` (centres unmarked) [Example 48, 2-(1-(6-amino-9H-purin-9-yl)ethyl)-6-fluoro-3-(2-fluorophenyl)-4H-chromen-4-one], for which the melting point lay within 245 to 248 °C. The compound further gave an inhibition at 1 µM against P110 δ/Pi3K δ of less than 50%.

`CC(c1oc2ccccc2c(=O)c1-c1cc(F)cc(F)c1)n1cnc2c(N)ncnc21` (centres unmarked) [Example 49, 2-(1-(6-Amino-9H-purin-9-yl)ethyl)-3-(3,5-difluorophenyl)-4H-chromen-4-one] had a melting point of 267 to 269 °C. The compound further showed an inhibition at 1 µM on P110 δ/Pi3K δ of less than 50%.

In the case of `CC(c1oc2ccc(F)cc2c(=O)c1-c1cccc(F)c1)n1cnc2c(N)ncnc21` (centres unmarked) [Example 50, 2-(1-(6-amino-9H-purin-9-yl)ethyl)-6-fluoro-3-(3-fluorophenyl)-4H-chromen-4-one], the melting point lay within 252 to 255 °C. In addition, the inhibition at 1 µM on P110 δ/Pi3K δ lay within 50 to 100%.

As to `CC(c1oc2ccccc2c(=O)c1-c1cccc(F)c1)n1nc(-c2cccc(O)c2)c2c(N)ncnc21` (centres unmarked) [Example 51a, 2-(1-(4-amino-3-(3-hydroxyphenyl)-1H-pyrazolo[3,4-d]pyrimidin-1-yl)ethyl)-3-(3-fluorophenyl)-4H-chromen-4-one], the melting point was in the range of 282 to 285 °C. Also, on P110 δ/Pi3K δ, the inhibition at 1 µM is 50 to 100% and the IC50 is less than 250 nM.
